Results reported in patent US10792236B2, “Dentifrice comprising zinc-amino acid complex” (Colgate-Palmolive Company, priority 2012, dated 2020).
Where “and” joins values, the source holds several entries; their conditions need not be identical. Identical values can stand only once.

Experiments:
[1] = Dilution experiment of ZLC neat solution: visible flocculation/precipitation at 37° C.; format: physicochemical
Procedure: Various dilutions of ZLC are prepared to evaluate its efficiency in producing visible precipitates and/or flocculation, which can be delivered in situ onto an oral surface or into a dental opening, such as open tubules.
(§1) A neat solution of ZLC is prepared by 1), reacting 0.5 mole of ZnO powder with 1 mole of lysine HCl in 1 liter of water at room temperature for about 2 hours, and 2) collecting the supernatant through centrifugation followed by filtration using a 0.45 micron membrane. The neat solution has a zinc concentration of 2.39% by weight, and a pH of about 7.03.
(§2) Dilution experiment is conducted by mixing the neat solution with deionized water. The neat solution is diluted by 2×, 4×, 6×, 7×, 8×, 10×, 12×, 16×, 20×, 24×, 28×, and 32×, corresponding to initial zinc concentrations of 1.20%, 0.598%, 0.398%, 0.341%, 0.299%, 0.239%, 0.199%, 0.149%, 0.120%, 0.0996%, 0.0854%, 0.0747%, by weight, respectively. The diluted samples are kept at 37° C., and the rates at which flocculation/precipitation occurred are monitored.

[2] = pH of ZLC neat solution and final diluted samples; format: physicochemical; settings: for final pH value: diluted sample
Procedure: as §1, §2
pH values of final diluted samples are suitable for oral care applications. […] These pH values were well within the range of 5.5 to 10, which defines the suitable range for oral care formulations.

[3] = Deposition/occlusion assay on dentine slices, confocal imaging; set-up: species or system human
Procedure: The deposition/occlusion assay is conducted using human dentine slices and the neat solution of Example 5. The dentine slices were prepared by cutting human tooth into thin dentine sections of about 800 microns in thickness, choosing a test side, sanding said test side using a sandpaper of about 600 grit, polishing said test side using a Buehler polishing cloth and 5 micron Buehler aluminum oxide, acid-etching said dentine section in 1% (by weight) citric acid solution for about 20 seconds, sonicating said dentine section for 10 minutes, and storing said dentine section in phosphate buffered saline (PBS, pH 7.4).
For treatment, the neat solution is diluted 16-fold with water, yielding a treatment solution with initial zinc concentration of about 0.149% by weight. The dentine section is immersed in the treatment solution for 1 hour at 37° C. The treated dentine section is then removed from the treatment solution, and rinsed 4 times, each time with 1 mL of PBS. The dentine section is then dried using a paper-based tissue and examined under confocal microscope in both XYZ and XYZ modes. Subsequent treatments are conducted in the same manner.
Dentine sections, as prepared in Example 6, are repeatedly treated with ZLC dilutions with initial zinc concentration of 0.0747% by weight. […] The dentine section is examined under the confocal microscope after each treatment.

- initial zinc concentration of additional sample showing flocculation ([1]; two hours after mixing): 0.299%
- initial zinc concentrations of dilutions with visible flocculation ([1]; within 30 minutes from mixing with water): 0.149% and 0.199%
- final pH value ([2]; initial zinc concentration 0.0747%): 7.99
- final pH value ([2]; initial zinc concentration 0.0854%): 8.13
- final pH value ([2]; initial zinc concentration 0.0996%): 8.11
- final pH value ([2]; initial zinc concentration 0.120%): 7.97
- final pH value ([2]; initial zinc concentration 0.149%): 7.99
- final pH value ([2]; initial zinc concentration 0.199 wt %): 6.80
- final pH value ([2]; initial zinc concentration 0.239%): 6.70
- pH ([2]; neat solution, zinc 2.39% by weight): about 7.03
Substance: [Zn(C6H14N2O2)2Cl]^+ Cl^− [ZLC]
- samples with flocculation and/or precipitation ([1]; after a total of 19 hours): all samples except the one with initial zinc concentration of 1.20%
- deposition/occlusion on dentine surface ([3]; 4 consecutive treatments, initial zinc 0.0747%, 10 minutes at 37° C. each): significant surface deposition
- deposition/occlusion on dentine surface ([3]; 12 consecutive treatments, initial zinc 0.0747%, 10 minutes at 37° C. each): complete surface coverage
- visible precipitation during treatment ([3]; 32-fold dilution, initial zinc 0.0747%, 10 minutes at 37° C.): no precipitation is observed by naked eyes
- thickness of surface deposits ([3]; after second treatment, 16-fold dilution, zinc about 0.149%): ≥ 10 microns
- thickness of surface deposits ([3]; after third treatment, 16-fold dilution, zinc about 0.149%): ≥ 25 microns
- deposition/occlusion on dentine surface ([3]; first treatment, neat solution diluted 16-fold, zinc about 0.149%, 1 hour at 37° C.): noticeable deposition
- deposition/occlusion on dentine surface ([3]; second treatment, 16-fold dilution, zinc about 0.149%, 1 hour at 37° C. each): complete surface coverage, including blocking of substantially all tubule openings
- deposition/occlusion on dentine surface ([3]; third treatment, 16-fold dilution, zinc about 0.149%, 1 hour at 37° C. each): complete surface coverage and complete blocking of tubule openings
